Experimental data as given in paper PMC4444998 (Journal of Natural Products, 2015).

Columns and labels:
Format in all cases: biochemical
[1] = tested on: Bovine trypsin; assay: Trypsin inhibition assay (Bz-Arg-AMC, fluorimetry); details: for inhibition of trypsin protease activity: cyclotides kalata B1 or psysol 2 at 25 µM and 75 µM, respectively, triplicate
Description: (§1) Inhibitory activity was performed in triplicate in 96-well microtiter plates. Bovine trypsin (10 μL of a 10 ng/μL solution; Roche, Basel, Switzerland) or bovine α-chymotrypsin (10 μL of a 2.5 ng/μL solution; Sigma-Aldrich) was preincubated for 15 min at 37 °C with buffer (125 μL of a 20 mM Tris-HCl solution, pH 8.0) and with 3 μL of the cyclotide solution or ddH2O as negative control. After preincubation, trypsin substrate (Bz-Arg-AMC-HCl, 10 μL of a 3 mM solution prepared in 40% 1,4-dioxane; Bachem, Bubendorf, Switzerland) or chymotrypsin substrate (Ala-Ala-Phe-AMC, 10 μL of a 3 mM solution prepared in 40% 1,4-dioxane; Sigma-Aldrich), respectively, was added, and the reaction was incubated while shaking (90 rpm) for 1 h at 37 °C. The reaction was stopped with sodium acetate (150 μL, 1 M, pH 4), and the formation of AMC was measured by fluorimetry. The excitation and emission wavelengths were 360 ± 40 and 485 ± 20 nm, respectively. Phenylmethane-sulfonylfluoride (PMSF; 3 μL of a 5 mM solution in DMSO) was used as a positive control of inhibition; additional controls with DMSO solution only were also performed. Data were calculated as percentage of inhibition and are presented as mean ± STDEV (of three replicates).

[2] = tested on: bovine α-chymotrypsin; assay: Chymotrypsin inhibition assay (Ala-Ala-Phe-AMC, fluorimetry); details: for inhibition of chymotrypsin activity: cyclotides at 25 µM and 75 µM, triplicate
Description: as §1

[3] = target: T1, human prolyl oligopeptidase (POP) (Homo sapiens, UniProt P48147); assay: Prolyl oligopeptidase inhibition assay (Z-Gly-Pro-AMC, fluorimetry)
T1 construct: made in house
T1 sequence (P48147 1-710): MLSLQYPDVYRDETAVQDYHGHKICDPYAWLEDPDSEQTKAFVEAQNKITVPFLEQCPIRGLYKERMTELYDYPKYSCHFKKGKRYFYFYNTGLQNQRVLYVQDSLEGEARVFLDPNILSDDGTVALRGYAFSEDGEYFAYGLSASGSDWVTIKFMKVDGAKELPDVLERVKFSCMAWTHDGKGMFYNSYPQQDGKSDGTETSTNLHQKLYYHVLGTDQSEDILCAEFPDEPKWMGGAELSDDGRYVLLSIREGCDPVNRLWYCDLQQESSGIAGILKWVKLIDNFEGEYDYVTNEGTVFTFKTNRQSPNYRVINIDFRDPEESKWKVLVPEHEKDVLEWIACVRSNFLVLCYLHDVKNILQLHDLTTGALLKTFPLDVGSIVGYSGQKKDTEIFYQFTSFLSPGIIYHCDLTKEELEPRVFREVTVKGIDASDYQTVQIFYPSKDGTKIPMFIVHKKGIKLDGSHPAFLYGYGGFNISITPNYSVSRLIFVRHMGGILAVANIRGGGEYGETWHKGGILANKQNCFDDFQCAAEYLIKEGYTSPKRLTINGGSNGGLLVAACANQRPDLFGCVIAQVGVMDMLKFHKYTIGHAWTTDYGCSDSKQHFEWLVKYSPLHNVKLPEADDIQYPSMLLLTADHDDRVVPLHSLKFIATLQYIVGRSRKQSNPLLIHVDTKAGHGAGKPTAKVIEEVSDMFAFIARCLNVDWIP

## O=S(=O)(F)Cc1ccccc1 [PMSF, Phenylmethane-sulfonylfluoride]
[1]; 100 µM
  inhibition of trypsin activity (positive control): able to inhibit
[2]; 100 µM
  inhibition of chymotrypsin activity (positive control): completel y blocked

## CC(C)C[C@@H]1NC(=O)CNC(=O)[C@H](CC(N)=O)NC(=O)[C@H](CCCNC(=N)N)NC(=O)[C@H]([C@@H](C)O)NC(=O)[C@@H]2CSSC[C@@H]3NC(=O)[C@H]([C@@H](C)O)NC(=O)CNC(=O)CNC(=O)[C@H](C(C)C)NC(=O)[C@@H]4CSSC[C@H](NC(=O)[C@H]([C@@H](C)O)NC(=O)[C@H](CSSC[C@H](NC(=O)[C@H](C(C)C)NC(=O)[C@@H]5CCCN5C1=O)C(=O)NCC(=O)N[C@@H](CCC(=O)O)C(=O)N[C@@H]([C@@H](C)O)C(=O)N4)NC(=O)CNC(=O)[C@@H]1CCCN1C(=O)[C@H]([C@@H](C)O)NC(=O)[C@H](CC(N)=O)NC3=O)C(=O)N[C@@H](CO)C(=O)N[C@@H](Cc1c[nH]c3ccccc13)C(=O)N1CCC[C@H]1C(=O)N[C@@H](C(C)C)C(=O)N2 [kalata B1]
[1]
  inhibition of trypsin protease activity: not inhibited
[3]; POP IC50 compared with no inhibition of trypsin/chymotrypsin at 25 and 75 μM
  selectivity toward inhibition of POP over trypsin and chymotrypsin: at least an order of magnitude more selective
[2]
  inhibition of chymotrypsin activity: had no effect

## CC[C@H](C)[C@@H]1NC(=O)[C@@H]2CCCN2C(=O)[C@H](CC(C)C)NC(=O)CNC(=O)[C@H](CC(N)=O)NC(=O)[C@H](CCCNC(=N)N)NC(=O)[C@H]([C@@H](C)O)NC(=O)[C@@H]2CSSC[C@@H]3NC(=O)[C@H]([C@@H](C)O)NC(=O)CNC(=O)CNC(=O)[C@H](C(C)C)NC(=O)[C@@H]4CSSC[C@H](NC(=O)[C@H]([C@@H](C)O)NC(=O)[C@H](CSSC[C@H](NC1=O)C(=O)NCC(=O)N[C@@H](CCC(=O)O)C(=O)N[C@@H](CO)C(=O)N4)NC(=O)CNC(=O)[C@@H]1CCCN1C(=O)[C@H]([C@@H](C)O)NC(=O)[C@H](CC(N)=O)NC3=O)C(=O)N[C@@H]([C@@H](C)O)C(=O)N[C@@H](Cc1c[nH]c3ccccc13)C(=O)N1CCC[C@H]1C(=O)N[C@@H](C(C)C)C(=O)N2 [psysol 2 (1), psysol 2]
[1]
  inhibition of trypsin protease activity: not inhibited
[3]; POP enzyme inhibition potency IC50, synthetic cyclotide, mean of three replicates
  IC50: 27.8 µM
[2]
  inhibition of chymotrypsin activity: had no effect
